Source: publication PMC12291464, “Modifying Antifungal Peptides as Safe Food Preservatives” (Journal of Agricultural and Food Chemistry, 2025)
In brackets after ≈: the same amount, converted by molar mass. Entries after “also recorded” stand apart in the source; their conditions may differ. Like-named read-outs stand apart in the source and are kept apart here. Residues, ends and D or L forms follow the SMILES beside them.

Columns and labels:
A. Niger = details: 24 h
Description: (§1) A1163 was grown on potato dextrose agar (PDA) medium at 37 °C for 5 days, and then the conidia were scraped and suspended in PBS with 0.025% (v/v) Tween 20, counted using a hemocytometer, and kept at 4 °C. isolated from peanuts and Pe21 (both kindly provided by Dr. Edward Sionov, ARO, Israel) were grown on PDA medium at 25 °C for 5 days, and then the conidia were scraped and suspended in PBS with 0.025% Tween 20 and kept at 4 °C. RP and methicillin-resistant (MRSA) were grown on LB agar plates, and individual colonies were picked and grown in Mueller–Hinton (MH) broth overnight at 37 °C. was grown on PDA medium at 30 °C, and individual colonies were picked and grown in yeast extract peptone dextrose (YPD) media overnight at 30 °C. All fungal and bacteria strains were maintained at −80 °C in 50% (v/v) glycerol stock.
(§2) For filamentous fungi strains, serial dilutions of 100 μL ranged from 100 to 0.78 μM for each peptide in a 96 well plate using RPMI1640 with 165 μM MOPS. A total of 80 μL of inoculum was suspended with a conidia load of 5 × 10^3 CFU/mL (final density of 2 × 10^3 CFU/mL), and 20 μL of resazurin was diluted in RPMI1640 solution of 0.02% [final concentration of 0.0002% (w/v)]. In the control, 100 μL of treatment was replaced by the same volume with medium, while the negative control was 180 μL of the medium and 20 μL of resazurin solution. Plates were incubated at 37 °C for and 25 °C for and for 24 h. The results were quantified by measuring absorbance at 570 nm with a microplate reader (Tecan). The mean absorbance values were used in subsequent calculations. The growth of resazurin reduction and growth inhibition was calculated using the following normalization: % growth=100−% reduction=abs of test agent−abs of untreated control/abs of reduced resazurin−abs of untreated control The MIC was defined as the lowest concentration of the peptide that inhibited fungal growth by 90%, allowing for only 10% of the normal growth. For bacterial and yeast strains studies, serial dilutions of 100 μL ranged from 100 to 0.78 μM for each peptide in a 96 well plate using MH media for bacteria and YPD for yeast. A total of 100 μL of the microbe in suitable media (5 × 10^5 CFU/mL) was inoculated in each well. In the untreated well (e.g., control), 100 μL of treatment was replaced by the same volume with medium, while in the negative control, media were only without microbes and peptides. After 24 h of incubation at 37 °C for bacteria and 30 °C for yeast, plates were read at 595 nm and MIC was defined as the lowest concentration of peptide that reduced the growth of the microbe to 10% growth.

E. coli = system: E. coli
Description: as §1, §2

P. expansum = details: 24 h
Description: as §1, §2

MRSA = system: MRSA
Description: as §1, §2

A. fumigatus = details: 24 h
Description: as §1, §2

chymotrypsin = chymotrypsin (Bos taurus, UniProt P00766); assay: Digestion examination of the peptides by chymotrypsin
Description: Peptides were dissolved in 1 mL of 100 μM NH4HCO3 to a final concentration of 4 mM, followed by the addition of 1 μL chymotrypsin (1 mg/mL), and were incubated at 37 °C and 150 rpm. At each time point, 75 μL of the solution was transferred to 90 °C for inactivation of the enzyme. After the peptides were frozen in liquid nitrogen and lyophilized, they were dissolved in DMSO and were analyzed in HPLC using Analytic Phenomenex Luna C18 (5 μm, 4.6 × 250 mm) with standard RP-HPLC conditions. The area under curve (AUC) was calculated at each time point and normalized to time = 0.
4 Peptide’s secondary structure and digestibility. (A) CD spectra of the peptides (50 μM) in DDW was measured using a J-1100 spectropolarimeter (Jasco), with the following parameters: wavelength range of 190–260 nm, bandwidth of 1 nm, data pitch of 0.1 nm, and three accumulations. A baseline spectrum was recorded using a 0.1 cm quartz cuvette filled with DDW and subtracted from the peptide spectrum to obtain the corrected CD spectrum. […] The area under the curve (AUC) was calculated at each time point and normalized to t = 0. The y axis ranges from 100%, meaning not digested at all, to 0%, meaning fully digested.

[1] = RPMI1640 with MOPS, resazurin, absorbance 570 nm, MIC = lowest concentration inhibiting growth by 90%, average ± SE, 3 biological repeats in triplicates
[2] = MH media, 5 × 10^5 CFU/mL, 24 h at 37 °C, read at 595 nm, MIC = growth reduced to 10%, average ± SE, 3 biological repeats in triplicates

Compound | MIC Values, A. Niger (A. Niger; [1]) | MIC Values, E. coli (E. coli; [2]) | MIC Values, P. expansum (P. expansum; [1]) | MIC Values, MRSA (MRSA; [2]) | MIC Values, A. fumigatus (A. fumigatus; [1]) | digestion by chymotrypsin (chymotrypsin) | MIC Values, A. Niger (A. Niger) | MIC Values, E. coli (E. coli; 24 h) | MIC Values, P. expansum (P. expansum) | MIC Values, MRSA (MRSA; 24 h) | MIC Values, A. fumigatus (A. fumigatus) | MIC Values, E. coli (E. coli) | MIC Values, MRSA (MRSA)
CC[C@H](C)[C@H](NC(=O)[C@H](CCCCN)NC(=O)[C@H](CCCCN)NC(=O)[C@H](Cc1ccccc1)NC(=O)[C@H](CC(C)C)NC(=O)[C@H](CCCCN)NC(=O)[C@@H](N)CC(C)C)C(=O)N[C@@H](CC(C)C)C(=O)N[C@@H](CCCCN)C(=O)N[C@@H](Cc1ccc(O)cc1)C(=O)N[C@@H](CC(C)C)C(N)=O [BP100 L1K] | 33 ± 8 µM (≈ 46.4 µg/mL) | 3 ± 1 µM (≈ 4.22 µg/mL) | 8 ± 2 µM (≈ 11.2 µg/mL) | 3 ± 0 µM (≈ 4.22 µg/mL) | 13 ± 0 µM (≈ 18.3 µg/mL) | – | – | – | – | – | – | – | –
C[C@H](N)C(=O)N[C@@H](CCCCN)C(=O)N[C@@H](CCCNC(=N)N)C(=O)N[C@@H](Cc1c[nH]cn1)C(=O)N[C@@H](Cc1c[nH]cn1)C(=O)NCC(=O)N[C@@H](Cc1ccc(O)cc1)C(=O)N[C@@H](CCCCN)C(=O)N[C@@H](CCCNC(=N)N)C(=O)N[C@@H](CCCCN)C(=O)N[C@@H](Cc1ccccc1)C(=O)N[C@@H](Cc1c[nH]cn1)C(=O)N[C@@H](C)C(=O)N[C@@H](CCCCN)C(=O)N[C@@H](CCCNC(=N)N)C(=O)N[C@@H](Cc1c[nH]cn1)C(=O)N[C@@H](Cc1c[nH]cn1)C(=O)NCC(=O)N[C@@H](Cc1ccc(O)cc1)C(=O)N[C@@H](CCCCN)C(=O)N[C@@H](CCCNC(=N)N)C(=O)N[C@@H](CCCCN)C(=O)N[C@@H](Cc1ccccc1)C(=O)N[C@@H](Cc1c[nH]cn1)C(N)=O [P-113 Double] (H-AKRHHGYKRKFHAKRHHGYKRKFH-NH2) | 5 ± 1 µM (≈ 15.6 µg/mL) | >200 µM | 9 ± 3 µM (≈ 28 µg/mL) | >200 µM | 15 ± 5 µM (≈ 46.7 µg/mL) | – | – | – | – | – | – | – | –
CC[C@H](C)[C@H](NC(=O)[C@H](CCCCN)NC(=O)[C@H](CCCCN)NC(=O)[C@H](Cc1ccccc1)NC(=O)[C@H](CC(C)C)NC(=O)[C@H](CCCCN)NC(=O)[C@H](CCCCN)NC(=O)[C@H](CC(C)C)NC(=O)[C@H](Cc1ccc(O)cc1)NC(=O)[C@H](CCCCN)NC(=O)[C@H](CC(C)C)NC(=O)[C@@H](NC(=O)[C@H](CCCCN)NC(=O)[C@H](CCCCN)NC(=O)[C@H](Cc1ccccc1)NC(=O)[C@H](CC(C)C)NC(=O)[C@H](CCCCN)NC(=O)[C@H](CCCCN)NC(=O)[C@H](CC(C)C)NC(=O)[C@H](Cc1ccc(O)cc1)NC(=O)[C@H](CCCCN)NC(=O)[C@H](CC(C)C)NC(=O)[C@@H](NC(=O)[C@H](CCCCN)NC(=O)[C@H](CCCCN)NC(=O)[C@H](Cc1ccccc1)NC(=O)[C@H](CC(C)C)NC(=O)[C@H](CCCCN)NC(=O)[C@@H](N)CCCCN)[C@@H](C)CC)[C@@H](C)CC)C(=O)N[C@@H](CC(C)C)C(=O)N[C@@H](CCCCN)C(=O)N[C@@H](Cc1ccc(O)cc1)C(=O)N[C@@H](CC(C)C)C(N)=O [BP100 Triple] (H-KKLFKKILKYLKKLFKKILKYLKKLFKKILKYL-NH2) | >200 µM | >200 µM | 83 ± 17 µM (≈ 351 µg/mL) | >200 µM | 42 ± 8.3 µM (≈ 178 µg/mL) | less prone for digestions; also recorded: not digested | – | – | – | – | – | – | –
C[C@H](N)C(=O)N[C@@H](CCCCN)C(=O)N[C@@H](CCCNC(=N)N)C(=O)N[C@@H](Cc1c[nH]cn1)C(=O)N[C@@H](Cc1c[nH]cn1)C(=O)NCC(=O)N[C@@H](Cc1ccc(O)cc1)C(=O)N[C@@H](CCCCN)C(=O)N[C@@H](CCCNC(=N)N)C(=O)N[C@@H](CCCCN)C(=O)N[C@@H](Cc1ccccc1)C(=O)N[C@@H](Cc1c[nH]cn1)C(N)=O [P-113, reference compound] (H-AKRHHGYKRKFH-NH2) | – | – | – | – | – | – | 14 ± 2 µM (≈ 21.9 µg/mL) | >200 µM | >200 µM | >200 µM | 21 ± 4 µM (≈ 32.8 µg/mL) | – | –
C[C@H](N)C(=O)N[C@@H](CCCCN)C(=O)N[C@@H](CCCNC(=N)N)C(=O)N[C@@H](CCCCN)C(=O)N[C@@H](CCCCN)C(=O)NCC(=O)N[C@@H](Cc1ccc(O)cc1)C(=O)N[C@@H](CCCCN)C(=O)N[C@@H](CCCNC(=N)N)C(=O)N[C@@H](CCCCN)C(=O)N[C@@H](Cc1ccccc1)C(=O)N[C@@H](CCCCN)C(N)=O [P-113 H4,5,12K] (H-AKRKKGYKRKFK-NH2) | 14 ± 4 µM (≈ 21.5 µg/mL) | >200 µM | >200 µM | >200 µM | 5 ± 1 µM (≈ 7.68 µg/mL) | – | – | – | – | – | – | – | –
CC[C@H](C)[C@H](N)C(=O)N[C@@H](CCCCN)C(=O)N[C@@H](CC(C)C)C(=O)N[C@@H](Cc1ccccc1)C(=O)N[C@@H](CCCCN)C(=O)N[C@@H](CCCCN)C(=O)N[C@H](C(=O)N[C@@H](CC(C)C)C(=O)N[C@@H](CCCCN)C(=O)N[C@@H](Cc1ccc(O)cc1)C(=O)N[C@@H](CC(C)C)C(N)=O)[C@@H](C)CC [BP100 I1K] | 33 ± 8 µM (≈ 46.4 µg/mL) | 3 ± 1 µM (≈ 4.22 µg/mL) | 8 ± 2 µM (≈ 11.2 µg/mL) | 3 ± 0 µM (≈ 4.22 µg/mL) | 13 ± 0 µM (≈ 18.3 µg/mL) | – | – | – | – | – | – | – | –
C[C@H](N)C(=O)N[C@@H](CCCCN)C(=O)N[C@@H](CCCNC(=N)N)C(=O)N[C@@H](CCCCN)C(=O)N[C@@H](Cc1c[nH]cn1)C(=O)NCC(=O)N[C@@H](Cc1ccc(O)cc1)C(=O)N[C@@H](CCCCN)C(=O)N[C@@H](CCCNC(=N)N)C(=O)N[C@@H](CCCCN)C(=O)N[C@@H](Cc1ccccc1)C(=O)N[C@@H](Cc1c[nH]cn1)C(N)=O [P-113 H4K] (H-AKRKHGYKRKFH-NH2) | – | – | – | – | – | – | 14 ± 2 µM (≈ 21.8 µg/mL) | >200 µM | >200 µM | >200 µM | 33 ± 8 µM (≈ 51.3 µg/mL) | – | –
CC[C@H](C)[C@H](NC(=O)[C@H](CCCCN)NC(=O)[C@H](CCCCN)NC(=O)[C@H](Cc1ccccc1)NC(=O)[C@H](CC(C)C)NC(=O)[C@H](CCCCN)NC(=O)[C@@H](N)Cc1ccccc1)C(=O)N[C@@H](CC(C)C)C(=O)N[C@@H](CCCCN)C(=O)N[C@@H](Cc1ccc(O)cc1)C(=O)N[C@@H](CC(C)C)C(N)=O [BP100 F1K] | 42 ± 8 µM (≈ 60.5 µg/mL) | 3 ± 1 µM (≈ 4.32 µg/mL) | 6 ± 0 µM (≈ 8.64 µg/mL) | 3 ± 1 µM (≈ 4.32 µg/mL) | 10 ± 2 µM (≈ 14.4 µg/mL) | – | – | – | – | – | – | – | –
CC[C@H](C)[C@H](NC(=O)[C@H](CCCCN)NC(=O)[C@H](CCCCN)NC(=O)[C@H](Cc1ccccc1)NC(=O)[C@H](CC(C)C)NC(=O)[C@H](CCCCN)NC(=O)[C@@H](N)CCCCN)C(=O)N[C@@H](CC(C)C)C(=O)N[C@@H](CCCCN)C(=O)N[C@@H](Cc1ccc(O)cc1)C(=O)N[C@@H](CC(C)C)C(N)=O [BP100, reference compound] | 44 ± 8 µM (≈ 62.5 µg/mL) | – | 13 ± 6 µM (≈ 18.5 µg/mL) | – | 6 ± 0 µM (≈ 8.53 µg/mL) | – | – | – | – | – | – | 3 ± 2 µM (≈ 4.26 µg/mL) | 17 ± 4 µM (≈ 24.2 µg/mL)
C[C@H](N)C(=O)N[C@@H](CCCCN)C(=O)N[C@@H](CCCNC(=N)N)C(=O)N[C@@H](Cc1c[nH]cn1)C(=O)N[C@@H](Cc1c[nH]cn1)C(=O)NCC(=O)N[C@@H](Cc1ccc(O)cc1)C(=O)N[C@@H](CCCCN)C(=O)N[C@@H](CCCNC(=N)N)C(=O)N[C@@H](CCCCN)C(=O)N[C@@H](Cc1ccccc1)C(=O)N[C@@H](CCCCN)C(N)=O [P-113 H12K] (H-AKRHHGYKRKFK-NH2) | 17 ± 4 µM (≈ 26.4 µg/mL) | >200 µM | >200 µM | >200 µM | 4 ± 1 µM (≈ 6.22 µg/mL) | – | – | – | – | – | – | – | –
